Tests used:
Experiment in all cases: Kinase profiling
Format in all cases: biochemical
ABL2 = target: T1, ABL2 (Homo sapiens, UniProt P42684)
T1 construct: purchased ProQinase (Freiburg, Germany)
Experimental: (§1) The analysis was performed by ProQinase (Freiburg, Germany).

ABL1 = target: T2, ABL1 (Homo sapiens, UniProt P00519)
T2 construct: purchased ProQinase (Freiburg, Germany)
Experimental: as §1

p38delta = target: T3, p38delta (Homo sapiens, UniProt O15264)
T3 construct: purchased ProQinase (Freiburg, Germany)
T3 sequence (O15264 1-365): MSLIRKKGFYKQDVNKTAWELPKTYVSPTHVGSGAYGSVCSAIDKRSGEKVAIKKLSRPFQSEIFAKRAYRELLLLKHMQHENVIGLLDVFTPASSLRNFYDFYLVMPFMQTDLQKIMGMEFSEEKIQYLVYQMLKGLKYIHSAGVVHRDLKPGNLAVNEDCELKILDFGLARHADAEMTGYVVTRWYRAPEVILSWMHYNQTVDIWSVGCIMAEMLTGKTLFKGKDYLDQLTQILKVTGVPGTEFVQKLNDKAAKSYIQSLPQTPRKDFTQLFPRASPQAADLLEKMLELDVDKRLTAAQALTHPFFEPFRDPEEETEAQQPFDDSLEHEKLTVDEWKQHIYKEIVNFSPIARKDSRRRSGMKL
Experimental: as §1

PKCnu = target: T4, PKCnu (Homo sapiens, UniProt O94806)
T4 construct: purchased ProQinase (Freiburg, Germany)
T4 sequence (O94806 1-890): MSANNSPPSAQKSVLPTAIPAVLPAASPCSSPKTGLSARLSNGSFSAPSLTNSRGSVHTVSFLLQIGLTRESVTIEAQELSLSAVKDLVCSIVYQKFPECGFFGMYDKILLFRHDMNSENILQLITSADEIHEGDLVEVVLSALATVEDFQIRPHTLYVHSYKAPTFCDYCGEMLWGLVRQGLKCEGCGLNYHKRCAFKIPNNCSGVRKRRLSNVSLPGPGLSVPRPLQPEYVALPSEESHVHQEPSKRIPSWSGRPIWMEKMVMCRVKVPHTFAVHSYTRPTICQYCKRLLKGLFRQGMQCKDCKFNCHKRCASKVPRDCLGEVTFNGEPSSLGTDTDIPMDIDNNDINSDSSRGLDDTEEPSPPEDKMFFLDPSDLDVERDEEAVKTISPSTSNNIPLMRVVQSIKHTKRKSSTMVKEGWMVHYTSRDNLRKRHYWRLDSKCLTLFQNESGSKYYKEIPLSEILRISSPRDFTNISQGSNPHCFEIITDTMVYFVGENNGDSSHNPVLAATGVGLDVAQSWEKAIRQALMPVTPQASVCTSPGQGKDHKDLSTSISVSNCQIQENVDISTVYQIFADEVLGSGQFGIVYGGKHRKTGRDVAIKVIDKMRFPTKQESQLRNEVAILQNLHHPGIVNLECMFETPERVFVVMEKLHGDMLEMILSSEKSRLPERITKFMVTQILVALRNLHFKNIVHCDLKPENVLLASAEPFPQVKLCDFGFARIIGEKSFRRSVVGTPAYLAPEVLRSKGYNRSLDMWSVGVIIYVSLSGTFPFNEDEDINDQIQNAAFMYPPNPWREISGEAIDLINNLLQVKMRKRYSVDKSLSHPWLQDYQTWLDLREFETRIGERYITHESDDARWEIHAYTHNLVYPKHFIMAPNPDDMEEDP
Experimental: as §1

SIK2 = target: T5, SIK2 (Homo sapiens, UniProt Q9H0K1)
T5 construct: purchased ProQinase (Freiburg, Germany)
Experimental: as §1

TYRO3 = target: T6, TYRO3 (Homo sapiens, UniProt Q06418)
T6 construct: purchased ProQinase (Freiburg, Germany)
T6 sequence (Q06418 41-890): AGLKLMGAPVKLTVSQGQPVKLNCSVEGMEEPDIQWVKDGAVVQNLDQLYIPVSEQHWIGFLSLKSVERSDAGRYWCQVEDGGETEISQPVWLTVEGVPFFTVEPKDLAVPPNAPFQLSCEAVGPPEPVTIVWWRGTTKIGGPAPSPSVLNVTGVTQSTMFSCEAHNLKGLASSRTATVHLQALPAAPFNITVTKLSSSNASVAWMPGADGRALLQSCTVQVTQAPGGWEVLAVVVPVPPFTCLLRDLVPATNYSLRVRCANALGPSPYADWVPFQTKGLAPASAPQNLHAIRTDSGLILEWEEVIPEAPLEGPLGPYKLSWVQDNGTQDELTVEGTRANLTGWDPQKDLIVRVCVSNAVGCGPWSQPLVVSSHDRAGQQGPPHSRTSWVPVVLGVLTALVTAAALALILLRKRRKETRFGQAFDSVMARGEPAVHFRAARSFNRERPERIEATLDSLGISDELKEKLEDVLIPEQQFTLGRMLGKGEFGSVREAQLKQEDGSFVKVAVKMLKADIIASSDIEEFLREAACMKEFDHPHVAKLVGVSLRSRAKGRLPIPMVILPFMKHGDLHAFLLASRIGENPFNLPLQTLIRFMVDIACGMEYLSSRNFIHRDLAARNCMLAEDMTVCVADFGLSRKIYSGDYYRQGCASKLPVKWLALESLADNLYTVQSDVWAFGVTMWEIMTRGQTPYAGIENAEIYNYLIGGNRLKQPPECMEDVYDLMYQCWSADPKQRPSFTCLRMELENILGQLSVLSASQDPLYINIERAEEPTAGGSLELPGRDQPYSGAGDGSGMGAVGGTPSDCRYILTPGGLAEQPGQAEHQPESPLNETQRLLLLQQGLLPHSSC
Experimental: as §1

NEK2 = target: T7, NEK2 (Homo sapiens, UniProt P51955)
T7 construct: purchased ProQinase (Freiburg, Germany)
T7 sequence (P51955 1-445): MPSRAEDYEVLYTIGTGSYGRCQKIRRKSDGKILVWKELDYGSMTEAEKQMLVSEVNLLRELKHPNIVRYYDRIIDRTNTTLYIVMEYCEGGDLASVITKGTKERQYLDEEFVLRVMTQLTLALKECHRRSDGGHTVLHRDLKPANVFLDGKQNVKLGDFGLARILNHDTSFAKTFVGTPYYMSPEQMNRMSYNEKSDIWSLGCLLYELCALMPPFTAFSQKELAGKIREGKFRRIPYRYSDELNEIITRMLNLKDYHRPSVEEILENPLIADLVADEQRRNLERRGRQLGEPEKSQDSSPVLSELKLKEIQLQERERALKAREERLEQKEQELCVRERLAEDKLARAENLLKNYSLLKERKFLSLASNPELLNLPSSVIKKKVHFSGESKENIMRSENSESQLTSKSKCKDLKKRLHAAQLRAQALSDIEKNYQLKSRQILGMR
Experimental: as §1

STK39 = target: T8, STK39 (Homo sapiens, UniProt Q9UEW8)
T8 construct: purchased ProQinase (Freiburg, Germany)
Experimental: as §1

T1 sequence (P42684 whole entry): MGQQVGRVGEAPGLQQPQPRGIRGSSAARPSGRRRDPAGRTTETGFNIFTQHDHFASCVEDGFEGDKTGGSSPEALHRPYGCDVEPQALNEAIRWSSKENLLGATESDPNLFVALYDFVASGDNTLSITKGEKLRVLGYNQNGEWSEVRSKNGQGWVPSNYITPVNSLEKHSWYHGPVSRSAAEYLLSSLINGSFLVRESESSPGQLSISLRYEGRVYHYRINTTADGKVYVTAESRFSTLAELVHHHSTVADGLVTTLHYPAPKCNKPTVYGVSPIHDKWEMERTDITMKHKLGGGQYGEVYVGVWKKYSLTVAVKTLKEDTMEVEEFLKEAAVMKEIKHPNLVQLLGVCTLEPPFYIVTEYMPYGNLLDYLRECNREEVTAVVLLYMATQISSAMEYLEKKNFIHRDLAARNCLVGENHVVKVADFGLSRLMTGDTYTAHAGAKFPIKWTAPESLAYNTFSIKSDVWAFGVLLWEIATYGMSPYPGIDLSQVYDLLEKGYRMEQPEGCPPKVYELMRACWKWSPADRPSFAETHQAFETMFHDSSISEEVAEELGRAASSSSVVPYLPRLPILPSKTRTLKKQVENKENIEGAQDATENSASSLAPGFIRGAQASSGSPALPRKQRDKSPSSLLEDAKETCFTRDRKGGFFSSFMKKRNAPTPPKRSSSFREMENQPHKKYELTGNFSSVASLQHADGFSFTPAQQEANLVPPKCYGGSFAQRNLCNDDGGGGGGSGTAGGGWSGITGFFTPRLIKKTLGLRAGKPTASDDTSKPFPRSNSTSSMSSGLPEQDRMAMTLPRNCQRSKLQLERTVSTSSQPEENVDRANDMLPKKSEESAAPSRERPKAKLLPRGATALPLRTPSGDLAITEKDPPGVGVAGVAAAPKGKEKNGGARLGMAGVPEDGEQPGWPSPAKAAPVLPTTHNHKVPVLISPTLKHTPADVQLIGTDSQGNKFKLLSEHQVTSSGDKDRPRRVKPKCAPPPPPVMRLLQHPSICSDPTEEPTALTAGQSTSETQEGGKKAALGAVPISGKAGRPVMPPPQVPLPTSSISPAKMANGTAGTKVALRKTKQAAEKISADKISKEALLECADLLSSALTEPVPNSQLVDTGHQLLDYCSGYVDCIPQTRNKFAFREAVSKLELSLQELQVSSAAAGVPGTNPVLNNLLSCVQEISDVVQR
T2 sequence (P00519 whole entry): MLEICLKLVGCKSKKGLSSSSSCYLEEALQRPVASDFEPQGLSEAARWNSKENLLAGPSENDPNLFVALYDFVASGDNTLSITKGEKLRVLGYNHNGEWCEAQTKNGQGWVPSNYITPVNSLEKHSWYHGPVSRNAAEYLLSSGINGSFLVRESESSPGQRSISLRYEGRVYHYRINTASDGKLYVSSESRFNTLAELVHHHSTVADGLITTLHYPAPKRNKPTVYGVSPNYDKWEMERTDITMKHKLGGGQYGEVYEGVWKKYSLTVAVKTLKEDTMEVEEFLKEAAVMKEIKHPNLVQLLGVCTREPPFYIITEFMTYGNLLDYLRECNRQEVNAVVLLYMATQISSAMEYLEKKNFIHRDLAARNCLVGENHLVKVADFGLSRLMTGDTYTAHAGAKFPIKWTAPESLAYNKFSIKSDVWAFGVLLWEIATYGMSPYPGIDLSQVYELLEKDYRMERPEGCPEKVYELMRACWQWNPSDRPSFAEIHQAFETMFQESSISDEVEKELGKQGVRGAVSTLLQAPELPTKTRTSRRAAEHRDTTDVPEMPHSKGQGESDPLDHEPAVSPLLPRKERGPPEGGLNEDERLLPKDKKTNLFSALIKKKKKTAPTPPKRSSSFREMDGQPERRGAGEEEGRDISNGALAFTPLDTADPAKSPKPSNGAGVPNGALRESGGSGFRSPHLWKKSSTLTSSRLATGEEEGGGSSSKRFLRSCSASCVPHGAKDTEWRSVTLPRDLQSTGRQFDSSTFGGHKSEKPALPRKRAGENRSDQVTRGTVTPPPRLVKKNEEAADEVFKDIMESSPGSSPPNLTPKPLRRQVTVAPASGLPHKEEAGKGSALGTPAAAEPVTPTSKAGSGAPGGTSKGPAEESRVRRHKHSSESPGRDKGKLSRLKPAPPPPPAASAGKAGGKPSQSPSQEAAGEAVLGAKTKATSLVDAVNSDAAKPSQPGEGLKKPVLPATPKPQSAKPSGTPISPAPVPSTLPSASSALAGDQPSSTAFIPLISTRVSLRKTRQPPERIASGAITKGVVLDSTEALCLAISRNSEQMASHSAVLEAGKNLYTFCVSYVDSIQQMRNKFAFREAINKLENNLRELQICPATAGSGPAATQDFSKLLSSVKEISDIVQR
T5 sequence (Q9H0K1 whole entry): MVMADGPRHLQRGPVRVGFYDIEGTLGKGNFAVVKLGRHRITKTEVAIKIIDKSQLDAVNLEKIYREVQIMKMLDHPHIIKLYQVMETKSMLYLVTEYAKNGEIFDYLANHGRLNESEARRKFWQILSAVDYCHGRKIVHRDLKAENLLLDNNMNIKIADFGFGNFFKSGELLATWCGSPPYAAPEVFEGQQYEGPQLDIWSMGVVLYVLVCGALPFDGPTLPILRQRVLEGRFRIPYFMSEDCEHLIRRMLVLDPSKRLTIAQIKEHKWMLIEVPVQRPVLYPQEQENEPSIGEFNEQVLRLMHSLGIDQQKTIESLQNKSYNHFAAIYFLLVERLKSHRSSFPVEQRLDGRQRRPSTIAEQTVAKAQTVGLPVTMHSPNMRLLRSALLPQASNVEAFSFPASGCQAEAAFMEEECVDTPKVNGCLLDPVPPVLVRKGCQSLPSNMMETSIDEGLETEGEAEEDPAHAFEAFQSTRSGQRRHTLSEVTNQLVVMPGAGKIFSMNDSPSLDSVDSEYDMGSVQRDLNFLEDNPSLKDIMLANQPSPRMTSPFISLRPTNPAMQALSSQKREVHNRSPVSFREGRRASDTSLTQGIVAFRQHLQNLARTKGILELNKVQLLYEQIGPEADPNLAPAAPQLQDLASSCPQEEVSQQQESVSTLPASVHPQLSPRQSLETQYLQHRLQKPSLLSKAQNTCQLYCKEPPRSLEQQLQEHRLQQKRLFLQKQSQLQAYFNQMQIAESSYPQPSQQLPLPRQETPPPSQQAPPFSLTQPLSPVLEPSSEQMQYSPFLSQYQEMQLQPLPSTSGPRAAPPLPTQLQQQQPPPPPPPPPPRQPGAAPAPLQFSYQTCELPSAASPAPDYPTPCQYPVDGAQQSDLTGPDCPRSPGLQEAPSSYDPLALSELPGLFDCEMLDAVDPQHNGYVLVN

SMILES | Residual activity (ABL2; 1.0E-05 M) | Residual activity (ABL2; 1.0E-06 M) | Residual activity (ABL1; 1.0E-05 M) | Residual activity (ABL1; 1.0E-06 M) | Residual activity (p38delta; 1.0E-05 M) | Residual activity (p38delta; 1.0E-06 M) | Residual activity (PKCnu; 1.0E-05 M) | Residual activity (PKCnu; 1.0E-06 M) | Residual activity (SIK2; 1.0E-05 M) | Residual activity (SIK2; 1.0E-06 M) | Residual activity (TYRO3; 1.0E-05 M) | Residual activity (TYRO3; 1.0E-06 M) | Residual activity (NEK2; 1.0E-05 M) | Residual activity (NEK2; 1.0E-06 M) | Residual activity (STK39; 1.0E-05 M) | Residual activity (STK39; 1.0E-06 M)
O=C(Cc1ccccc1)Nc1ccc(F)c(Nc2ccc3c(c2)CCCCC3=O)c1 [Compound 100] | 93 % of control | 97 % of control | 88 % of control | 90 % of control | 85 % of control | 93 % of control | 65 % of control | 88 % of control | 81 % of control | 89 % of control | 77 % of control | 96 % of control | 97 % of control | 105 % of control | 106 % of control | 108 % of control
O=C(Nc1ccc(F)c(Nc2ccc3c(c2)CCCCC3=O)c1)c1cccc(F)c1 [Compound 109] | 92 % of control | 95 % of control | 91 % of control | 91 % of control | 98 % of control | 91 % of control | 69 % of control | 88 % of control | 82 % of control | 93 % of control | 92 % of control | 104 % of control | 101 % of control | 96 % of control | 100 % of control | 90 % of control

— paper PMC9030254, “Target Hopping from Protein Kinases to PXR: Identification of Small-Molecule Protein Kinase Inhibitors as Selective Modulators of Pregnane X Receptor from TüKIC Library” (Cells, 2022)
